“Also recorded” adds a separate entry of the source. Bridges are numbered along the chain shown (N, C = ends). Where no end group is shown, it is not given here.
Assays:
[1] = tested on: collagenase OA mouse model (right knee joint); assay: Therapeutic effect of CNP infusion on collagenase osteoarthritic mouse model; type: in vivo; conditions: for AUC of knee joint swelling (difference between right and left knee joint breadth) vs solvent control: 1.5% collagenase, 28 days; for swelling of the right knee joint vs solvent control: 6 days following 1.5% collagenase
Procedure: (§1) An osmotic pump (2004 model, Durect) containing the solutions below was transplanted subcutaneously in the back of a 9-week-old male C57BL/6 J strain mouse. • Solvent: Distilled water containing 5% dextrose (Junsei Chemical Co., Ltd., Japan), 10% mannose (Nacalai Tesque Inc., Japan) and 5 mmol/L hydrochloric acid (Wako Pure Chemical Industries, Japan). • 10 μg/mL solution (60 ng/day) of CNP-22 (Calbiochem Novabiochem). • 100 μg/mL solution (600 ng/day) of CNP-22 (Calbiochem Novabiochem.).
Six days after transplantation, 6 μL of 1.5% type II collagenase (Sigma) solution was injected into the right knee joint, the breadth of both the right and left knee joints was measured on time with a slide caliper (Mitutoyo Corp., Japan) for 28 days after injection, and the difference between the right and left knee joints was calculated. This difference represented the swelling of knee joints, and the AUC was compared between the solvent control and CNP groups by the Student's t-test (SAS ver. 6.12). […] Hematoxylin-eosin-stained and safranin O-stained samples were prepared according to the method as described in Example 5, and analyzed histopathologically.

[2] = tested on: surgical OA mouse model (right knee joint); assay: Therapeutic effect of CNP infusion on surgical OA mouse model; type: in vivo; conditions: 4, 8 and 11 days postoperatively
Procedure: as §1, with “mouse (CLEA Japan, Japan).” for “mouse.”, “[…]” for “μg/mL”, “Novabiochem).” for “Novabiochem.).”
On the following day of transplantation, the mouse was anesthetized with ether and subjected to the surgical procedures of anterocrucial ligament excision, medial collateral ligament excision and medial meniscus total resection in the right knee joint to induce osteoarthritis. The breadth of both the right and left knee joints was measured on time with a slide caliper (Mitutoyo Corp.) for 11 days after administration, and the difference between the right and left knee joints was calculated. This difference represented the swelling of knee joints, and the AUC was compared between the solvent control and CNP groups by the Student's t-test (SAS Preclinical Package, SAS Institute Japan, Japan).

[3] = tested on: collagenase OA mouse model (right knee joint); assay: Combined effect of NSAID and CNP in collagenase OA model; type: in vivo; conditions: 7 days
Procedure: An osmotic […]) containing the solutions below was transplanted subcutaneously in the back of a 9-week-old male C57BL/6 J strain mouse. • Solvent: Distilled water containing 5% dextrose (Junsei Chemical Co., Ltd., Japan), 10% mannose (Nacalai Tesque Inc., Japan) and 5 mmol/L hydrochloric acid (Wako Pure Chemical Industries, Japan). • 1 μg/mL solution (6 ng/day) of CNP-22 (Calbiochem Novabiochem). In addition, to examine the effect of the NSAID indomethacin (Sigma) when used alone and in combination with the CNP, an indomethacin suspension in 0.2% carboxymethyl cellulose (Nacalai Tesque Inc., Japan) was administered orally in a forced manner at 1 mg/kg once a day for 4 successive days from the date of pump transplantation described above. On the date of pump transplantation and the following day, 6 μL of 0.15% type II collagenase (Sigma) and 6 μL of 1.5% type II collagenase solutions, respectively, were injected into the right knee joint, the breadth of both the right and left knee joints was measured daily with a slide caliper (Mitutoyo Corp., Japan) for 7 days after injection, and the difference between the right and left knee joints was calculated. This difference represented the swelling of knee joints, and the AUC was compared between the solvent control and CNP groups by the Student's t-test (SAS ver. 6.12).

[4] = tested on: adjuvant arthritis rat model; assay: Effect of CNPs on adjuvant arthritis rat model; type: in vivo; conditions: CNP-22 60 ng/day; for arthritis score of the limb ends vs solvent control: osmotic pump subcutaneous; for body weight vs solvent control: days 7 and 10 from antigen sensitization
[5] = tested on: collagen arthritis rat model; assay: Effect of CNPs on collagen arthritis rat model; type: in vivo; conditions: CNP-22 6 μg/day, days 21, 24 and 28 from antigen sensitization
Procedure: An osmotic pump (2004 model, Durect) containing the solutions below was transplanted subcutaneously in the back of a 10-week-old female DA/Slc strain rat (Japan SLC, Inc., Japan). • Solvent: Distilled water containing 5% dextrose (Junsei Chemical Co., Ltd., Japan), 10% mannose (Nacalai Tesque Inc., Japan) and 5 mmol/L hydrochloric acid (Wako Pure Chemical Industries, Japan). • 1 mg/mL solution (6 μg/day) of CNP-22 (Calbiochem Novabiochem).
Immediately after transplantation, bovine type II collagen (Collagen Technology Training Co., Japan) was dissolved in 0.1 mol/L aqueous acetic acid so as to make 1.5 mg/mL and suspended in an equal volume of Freund Incomplete Adjuvant (DIFCO LABORATORIES), and 400 μL of the suspension was inoculated into the skin on the back of a rat. Changes in body weight were also measured on a daily basis. In addition, changes in body weight were also measured in a normal group receiving neither pump transplantation nor inoculation.

[6] = tested on: mouse bone marrow macrophages (BMM); conditions: stimulation of mouse BMM with LPS; cited from earlier work
[7] = tested on: blood thromboxane B2 (TXB2) level; conditions: LPS administration in mice; cited from earlier work
[8] = CNP-22 60 ng/day continuous subcutaneous
[9] = CNP-22 600 ng/day continuous subcutaneous

In the case of “Gly Leu Ser Lys Gly Cys Phe Gly Leu Lys Leu Asp Arg Ile Gly Ser Met Ser Gly Leu Gly Cys (GLSKGCFGLKLDRIGSMSGLGC; disulfide 6-22; listed as Homo sapiens) [CNP-22, CNP-22 (Calbiochem Novabiochem) used in the tests]”, the “synovial cell growth, granulation and inflammatory cell infiltration in the synovial membrane (histopathology)” value ([1]; CNP group vs solvent control, collagenase-induced) is reported as “remarkably reduced”, the “degeneration of the articular cartilage” value ([1]; CNP group, osmotic pump infusion) is reported as “significantly reduced” and the “AUC of knee joint swelling (difference between right and left knee joint breadth) vs solvent control” value ([1]; CNP-22 60 ng/day continuous subcutaneous (osmotic pump)) is reported as “significantly lower”. The “swelling of the right knee joint vs solvent control” value [1, 8] was “significantly inhibited”, the “AUC of knee joint swelling (difference between right and left knee joint breadth) vs solvent control” value ([1]; CNP-22 600 ng/day continuous subcutaneous (osmotic pump)) was “significantly lower” and the “swelling of the right knee joint vs solvent control” value [1, 9] was “significantly inhibited”. The “AUC of knee joint swelling vs solvent control” value [2, 8] was “significantly lower; also recorded: significantly inhibited”, the “AUC of knee joint swelling vs solvent control” value [2, 9] was “significantly lower; also recorded: significantly inhibited” and the “swelling of knee joints (AUC) vs solvent control” value ([3]; CNP-22 6 ng/day continuous subcutaneous alone) was “significantly inhibited”. For the same molecule, the “arthritis score of the limb ends vs solvent control” value [4] was “lower”, the “arthritis score of the limb ends vs solvent control” value ([4]; listed as CNP) was “somewhat lower” and the “body weight vs solvent control” value [4] was “significantly heavy”. For the same molecule, the “body weight vs solvent control” value ([4]; listed as CNP) was “increased significantly”, the “body weight (body weight loss) vs solvent control” value [5] was “significantly heavy” and the “body weight (body weight loss) vs solvent control” value ([5]; listed as CNP) was “significantly smaller”. The “inhibitory effect on the enhancement of PGE2 production” value [6] was “up to 20%”.

For `COc1ccc2c(c1)c(CC(=O)O)c(C)n2C(=O)c1ccc(Cl)cc1` [indomethacin], the “swelling of knee joints (AUC) vs solvent control” value ([3]; indomethacin 1 mg/kg oral once a day for 4 days, alone) was “not inhibitory; also recorded: did not”.

In the case of “ANP: atrial sodium peptide, a natriuretic peptide acting via NPR-A (SLRRSSCFGGRMDRIGAQSGLGCNSFRY; ends and bridges not checked; cysteine pairing not given here; UniProt P01160 124-151, looked up) [reference compound]”, the “inhibitory effect on the enhancement of PGE2 production” value [6] is listed as “up to 70%” and the “effect on LPS-increased blood TXB2 level” value [7] is listed as “inhibitory effect”.
